Measurements from ChEMBL document CHEMBL1135945, “CoMFA and HQSAR of acylhydrazide cruzain inhibitors” (Bioorg Med Chem Lett, 2002).

molecular target: Cruzipain (Trypanosoma cruzi, UniProt P25779); assay: Inhibition of cruzain, the major cysteine protease from Trypanosoma cruzi
Sequence (P25779 whole entry): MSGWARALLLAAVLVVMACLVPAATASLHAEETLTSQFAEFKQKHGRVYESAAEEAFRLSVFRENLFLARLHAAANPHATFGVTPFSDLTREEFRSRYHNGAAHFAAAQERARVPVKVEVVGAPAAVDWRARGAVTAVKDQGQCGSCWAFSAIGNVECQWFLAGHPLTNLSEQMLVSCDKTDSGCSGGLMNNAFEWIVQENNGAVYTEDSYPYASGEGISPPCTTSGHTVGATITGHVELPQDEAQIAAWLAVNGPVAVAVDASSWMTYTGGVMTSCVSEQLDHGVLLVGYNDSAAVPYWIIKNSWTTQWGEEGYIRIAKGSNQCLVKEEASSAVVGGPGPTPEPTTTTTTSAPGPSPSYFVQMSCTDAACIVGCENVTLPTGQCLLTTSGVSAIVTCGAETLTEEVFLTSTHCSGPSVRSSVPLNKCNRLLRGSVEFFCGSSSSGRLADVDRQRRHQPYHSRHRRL

| Structure (SMILES) | IC50 [µM] |
| --- | --- |
| O=C(N/N=C/c1ccc(-c2ccc(Cl)cc2)o1)c1ccccc1O | 100 |
| COc1ccc(C(=O)N/N=C/c2ccoc2)c(OC)c1 | 166 |
| COc1cc(OC)cc(C(=O)N/N=C/c2ccc(C(=O)O)o2)c1 | 10 |
| O=C(N/N=C/c1ccc(-c2ccccc2[N+](=O)[O-])o1)c1ccccc1O | 20 |
| O=C(N/N=C/c1ccc([N+](=O)[O-])o1)c1cccc([N+](=O)[O-])c1 | 5.01 |
| O=C(N/N=C/c1ccc(C(=O)O)o1)c1cccc([N+](=O)[O-])c1 | 331 |
| COc1ccc2cc(O)c(C(=O)N/N=C/c3ccc(-c4cc(C(F)(F)F)nn4C)s3)cc2c1 | 0.2 |

Results, then the compound that gave them:

| IC50 [µM] | Structure (SMILES) |
| --- | --- |
| 30.2 | O=C(N/N=C/c1ccnc2ccccc12)c1ccccc1O |
| 30.2 | O=C(N/N=C/c1cc(Br)cs1)c1cnc2ccccc2c1 |
| 6.03 | O=C(N/N=C/c1ccc(-c2cccc([N+](=O)[O-])c2)o1)c1ccc2ccccc2c1 |
| 0.501 | CN(C)c1ccc(/C=N/NC(=O)c2ccccc2)c2ccccc12 |
| 16.2 | CN(C)c1ccc(/C=N/NC(=O)c2ccc(O)c(O)c2)c2ccccc12 |
| 6.03 | O=C(N/N=C/c1ccc([N+](=O)[O-])o1)c1cc2ccccc2cc1O |
| 6.03 | CN(C)c1ccc(/C=N/NC(=O)c2ccnc3ccccc23)c2ccccc12 |
| 10 | CSc1ccc(/C=N/NC(=O)c2cccc(C)c2O)s1 |
| 0.603 | O=C(N/N=C/c1ccc(-c2ccccc2Cl)o1)c1cc2ccccc2cc1O |
